Measured values taken from the supplement of paper PMC8967900.

What was measured:
Assay in all cases: selective drug sensitivity score (sDSS, relative to normal bone marrow) (sDSS (score)); higher = more potent and effective on the cell line relative to normal bone marrow cells
Details in all cases: 72 h
COG-LL-317 = tested on: COG-LL-317
ALL-PO = tested on: ALL-PO
COG-LL-402h = tested on: COG-LL-402h
LC4-1 = tested on: LC4-1
ALL-SIL = tested on: ALL-SIL
697 = tested on: 697
CCRF-CEM = tested on: CCRF-CEM
JURKAT = tested on: JURKAT
NALM-16 = tested on: NALM-16
P12-ICHIKAWA = tested on: P12-ICHIKAWA
DND-41 = tested on: DND-41
RCH-ACV = tested on: RCH-ACV
MHH-CALL-3 = tested on: MHH-CALL-3
RPMI-8402 = tested on: RPMI-8402
KASUMI-10 = tested on: KASUMI-10
KASUMI-2 = tested on: KASUMI-2
380 = tested on: 380
NALM-6 = tested on: NALM-6
COG-LL-394h = tested on: COG-LL-394h
COG-LL-332h = tested on: COG-LL-332h
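Note: ALL cell lines in 384-well plates, five doses spanning 10,000-fold, each plate scaled between vehicle and 100 µmol/L benzalkonium chloride controls, sDSS an adapted area-under-curve metric.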

CNC(=O)c1cccc(-c2ccc3c(N4CCOC[C@@H]4C)nc(N4CCOC[C@@H]4C)nc3n2)c1 [Vistusertib] (top concentration 10000 nM)
selective drug sensitivity score (COG-LL-317): 2.12
selective drug sensitivity score (ALL-PO): 10
selective drug sensitivity score (COG-LL-402h): 9.12
selective drug sensitivity score (LC4-1): 5.12
selective drug sensitivity score (ALL-SIL): 8.52
selective drug sensitivity score 697: 15.1
selective drug sensitivity score (CCRF-CEM): 8.22
selective drug sensitivity score (JURKAT): 2.22
selective drug sensitivity score (NALM-16): 2.22
selective drug sensitivity score (P12-ICHIKAWA): 3.72
selective drug sensitivity score (DND-41): 9.02
selective drug sensitivity score (RCH-ACV): 24.5
selective drug sensitivity score (MHH-CALL-3): 2.12
selective drug sensitivity score (RPMI-8402): 5.52
selective drug sensitivity score (KASUMI-10): 0.32
selective drug sensitivity score (KASUMI-2): 15
selective drug sensitivity score 380: 17.1
selective drug sensitivity score (NALM-6): 3.92
selective drug sensitivity score (COG-LL-394h): -1.28
selective drug sensitivity score (COG-LL-332h): 4.62
